system: MIA PaCa-2 cells; assay: In-vitro anti-proliferative activity against MIA PaCa-2 cells; assay type: cell-based; details: Homo sapiens, 72 h after dosing, intracellular ATP content
Protocol: MIA PaCa-2 cells were seeded on a 384-well plate at 3000 cells/well. After overnight adherence culture, DMSO or the compounds serially diluted 1:5 from 5 μM were added. […] The inhibition percentage of viable cells by the compounds was calculated by comparing with the DMSO group, and the IC50 value was calculated.

`C[C@@H]1COCCN1c1cc(C2(C#N)CCN(CC(N)=O)CC2)c2ccnc(-c3ccn[nH]3)c2n1` [Compound 76] and `C[C@@H]1COCCN1c1cc(C2(C#N)CCN(CC(=O)N(C)C)CC2)c2ccnc(-c3ccn[nH]3)c2n1` [Compound 77] cannot be ordered by IC50: under 1000 nM for the first, under 1000 nM for the second.

`C[C@@H]1COCCN1c1cc(C2(C#N)CCN(CC3CCOC3)CC2)c2ccnc(-c3ccn[nH]3)c2n1` (stereo partly shown) [Compound 84] and `C[C@@H]1COCCN1c1cc(C2(C#N)CCN(CC3CC3)CC2)c2ccnc(-c3ccn[nH]3)c2n1` [Compound 82] cannot be ordered by IC50: under 1000 nM for the first, under 1000 nM for the second.

`COCCN1CCC(C#N)(c2cc(N3CCOC[C@H]3C)nc3c(-c4ccn[nH]4)nccc23)CC1` [Compound 75] and `CCN1CCC(C#N)(c2cc(N3CCOC[C@H]3C)nc3c(-c4ccn[nH]4)nccc23)CC1` [Compound 66] cannot be ordered by IC50: under 1000 nM for the first, under 1000 nM for the second.

`C[C@@H]1COCCN1c1cc(C2(C#N)CCN(c3ccccc3F)CC2)c2ccnc(-c3ccn[nH]3)c2n1` [Compound 49] and `C[C@@H]1COCCN1c1cc(C2(C#N)CCN(c3cccc(F)c3)CC2)c2ccnc(-c3ccn[nH]3)c2n1` [Compound 48] cannot be ordered by IC50: under 1000 nM for the first, under 1000 nM for the second.

First: CCOP(=O)(CCC(C#N)c1cc(N2CCOC[C@H]2C)nc2c(-c3ccn[nH]3)nccc12)OCC (stereo partly shown) [Compound 12]
Second: C[C@@H]1COCCN1c1cc(C(C#N)CCS(C)(=O)=O)c2ccnc(-c3ccn[nH]3)c2n1 (stereo partly shown) [Compound 15]
The IC50 of the first is lower: 1000 to 5000 nM for the first, over 5000 nM for the second.

`CCOP(=O)(CCN1CCC(C#N)(c2cc(N3CCOC[C@H]3C)nc3c(-c4ccn[nH]4)nccc23)CC1)OCC` [Compound 81] and `C[C@@H]1COCCN1c1cc(C2(C#N)CCN(CCN(C)C)CC2)c2ccnc(-c3ccn[nH]3)c2n1` [Compound 78] cannot be ordered by IC50: under 1000 nM for the first, under 1000 nM for the second.

Compared with `CC(C)N1CCC(C#N)(c2cc(N3CCOC[C@H]3C)nc3c(-c4ccn[nH]4)nccc23)CC1` [Compound 67], `CC(=O)N1CCC(C#N)(c2cc(N3CCOC[C@H]3C)nc3c(-c4ccn[nH]4)nccc23)CC1` [Compound 38, (R)-1-acetyl-4-(2-(3-methylmorpholino)-8-(1H-pyrazol-5-yl)-1,7-naphthyridin-4-yl)piperidine-4-carbonitrile] is higher in IC50: under 1000 nM for the first, 1000 to 5000 nM for the second. The first is the more potent here.

`C[C@@H]1COCCN1c1cc(C2(C#N)CCC3(CC2)COC3)c2ccnc(-c3ccn[nH]3)c2n1` [Compound 51] and `C[C@@H]1COCCN1c1cc(C2(C#N)CCC3(CC2)CN(C)C3)c2ccnc(-c3ccn[nH]3)c2n1` [Compound 52] cannot be ordered by IC50: under 1000 nM for the first, under 1000 nM for the second.

`C[C@@H]1COCCN1c1cc(C(C#N)CC2CC2)c2ccnc(-c3ccn[nH]3)c2n1` (stereo partly shown) [Compound 6] and `C[C@@H]1COCCN1c1cc(C(C#N)CCN)c2ccnc(-c3ccn[nH]3)c2n1` (stereo partly shown) [Compound 16] fall in the same range of IC50: 1000 to 5000 nM for the first, 1000 to 5000 nM for the second.

`CCN(CC)C1CCC(C#N)(c2cc(N3CCOC[C@H]3C)nc3c(-c4ccn[nH]4)nccc23)CC1` (stereo partly shown) [Compound 62] and `CNC1CCC(C#N)(c2cc(N3CCOC[C@H]3C)nc3c(-c4ccn[nH]4)nccc23)CC1` (stereo partly shown) [Compound 61] cannot be ordered by IC50: under 1000 nM for the first, under 1000 nM for the second.

`C[C@@H]1COCCN1c1cc(C2(C#N)CCC(N3CCCCC3)CC2)c2ccnc(-c3ccn[nH]3)c2n1` (stereo partly shown) [Compound 64] and `C[C@@H]1COCCN1c1cc(C2(C#N)CCC(N3CCC3)CC2)c2ccnc(-c3ccn[nH]3)c2n1` (stereo partly shown) [Compound 63] cannot be ordered by IC50: under 1000 nM for the first, under 1000 nM for the second.

`C[C@@H]1COCCN1c1cc(C2(C#N)CCC(N3CCN(C)CC3)CC2)c2ccnc(-c3ccn[nH]3)c2n1` (stereo partly shown) [Compound 36] and `C[C@@H]1COCCN1c1cc(C2(C#N)CCN(C3CCN(C)C3)CC2)c2ccnc(-c3ccn[nH]3)c2n1` (stereo partly shown) [Compound 74] cannot be ordered by IC50: under 1000 nM for the first, under 1000 nM for the second.

`C[C@@H]1COCCN1c1cc(C(C#N)C2CCN(C)CC2)c2ccnc(-c3ccn[nH]3)c2n1` (stereo partly shown) [Compound 24] and `C[C@@H]1COCCN1c1cc(C(C#N)C2CCCCC2)c2ccnc(-c3ccn[nH]3)c2n1` (stereo partly shown) [Compound 21] fall in the same range of IC50: 1000 to 5000 nM for the first, 1000 to 5000 nM for the second.

`C[C@@H]1COCCN1c1cc(C2(C#N)CCN(C3CN(C)C3)CC2)c2ccnc(-c3ccn[nH]3)c2n1` [Compound 72] and `C[C@@H]1COCCN1c1cc(C2(C#N)CCN(C3COC3)CC2)c2ccnc(-c3ccn[nH]3)c2n1` [Compound 70] cannot be ordered by IC50: under 1000 nM for the first, under 1000 nM for the second.

`C[C@@H]1COCCN1c1cc(C(C)(C)C#N)c2ccnc(-c3ccn[nH]3)c2n1` [Compound 3, (R)-2-methyl-2-(2-(3-methylmorpholino)-8-(1H-pyrazol-5-yl)-1,7-naphthyridin-4-yl)propionitrile] and `CC(C#N)c1cc(N2CCOC[C@H]2C)nc2c(-c3ccn[nH]3)nccc12` (stereo partly drawn) [Compound 2, 2-(2-((R)-3-methylmorpholino)-8-(1H-pyrazol-5-yl)-1,7-naphthyridin-4-yl)propionitrile] cannot be ordered by IC50: over 5000 nM for the first, over 5000 nM for the second.

`C[C@@H]1COCCN1c1cc(C(C#N)CCN2CCN(C)CC2)c2ccnc(-c3ccn[nH]3)c2n1` (stereo partly shown) [Compound 19] and `CSCCC(C#N)c1cc(N2CCOC[C@H]2C)nc2c(-c3ccn[nH]3)nccc12` (stereo partly shown) [Compound 13] fall in the same range of IC50: 1000 to 5000 nM for the first, 1000 to 5000 nM for the second.

Compared with `CC(=O)N1CCCC(C#N)(c2cc(N3CCOC[C@H]3C)nc3c(-c4ccn[nH]4)nccc23)C1` (stereo partly shown) [Compound 40], `C[C@@H]1COCCN1c1cc(C2(C#N)CCN(C3CCC3)CC2)c2ccnc(-c3ccn[nH]3)c2n1` [Compound 68] is lower in IC50: over 5000 nM for the first, under 1000 nM for the second. The second is the more potent here.

Compared with `C[C@@H]1COCCN1c1cc(C(C#N)C2CCC(N(C)C)CC2)c2ccnc(-c3ccn[nH]3)c2n1` (stereo partly shown) [Compound 23], `C=CC(C#N)c1cc(N2CCOC[C@H]2C)nc2c(-c3ccn[nH]3)nccc12` (stereo partly shown) [Compound 7] is higher in IC50: 1000 to 5000 nM for the first, over 5000 nM for the second. The first is the more potent here.

`CC(C)OC1CCC(C#N)(c2cc(N3CCOC[C@H]3C)nc3c(-c4ccn[nH]4)nccc23)CC1` (stereo partly shown) [Compound 55] and `C[C@@H]1COCCN1c1cc(C2(C#N)CCC(OC3CC3)CC2)c2ccnc(-c3ccn[nH]3)c2n1` (stereo partly shown) [Compound 57] cannot be ordered by IC50: under 1000 nM for the first, under 1000 nM for the second.

First: C[C@@H]1COCCN1c1cc(C(C#N)CC(N)=O)c2ccnc(-c3ccn[nH]3)c2n1 (stereo partly shown) [Compound 11]
Second: C[C@@H]1COCCN1c1cc(C(C#N)CC[S+](C)[O-])c2ccnc(-c3ccn[nH]3)c2n1 (stereo partly shown) [Compound 14]
The IC50 of the first is lower: 1000 to 5000 nM for the first, over 5000 nM for the second.

`C[C@@H]1COCCN1c1cc(C2(C#N)CCC(OCC3CC3)CC2)c2ccnc(-c3ccn[nH]3)c2n1` (stereo partly shown) [Compound 56] and `C[C@@H]1COCCN1c1cc(C2(C#N)CC3CCC(C2)O3)c2ccnc(-c3ccn[nH]3)c2n1` (stereo partly drawn) [Compound 85, 3-(2-((R)-3-methylmorpholino)-8-(1H-pyrazol-5-yl)-1,7-naphthyridin-4-yl)-8-oxabicyclo[3.2.1]octane-3-carbonitrile] cannot be ordered by IC50: under 1000 nM for the first, under 1000 nM for the second.

`CC#CC(C#N)c1cc(N2CCOC[C@H]2C)nc2c(-c3ccn[nH]3)nccc12` (stereo partly shown) [Compound 8] and `C[C@@H]1COCCN1c1cc(CC#N)c2ccnc(-c3ccn[nH]3)c2n1` [Compound 1, (R)-2-(2-(3-methylmorpholino)-8-(1H-pyrazol-5-yl)-1,7-naphthyridin-4-yl)acetonitrile] cannot be ordered by IC50: over 5000 nM for the first, over 5000 nM for the second.

First: C[C@@H]1COCCN1c1cc(C2(C#N)CCN(c3ccc(Cl)cc3)CC2)c2ccnc(-c3ccn[nH]3)c2n1 [Compound 45, (R)-1-(4-chlorophenyl)-4-(2-(3-methylmorpholino)-8-(1H-pyrazol-5-yl)-1,7-naphthyridin-4-yl)piperidine-4-carbonitrile]
Second: C[C@@H]1COCCN1c1cc(C2(C#N)CCN(c3ccc(F)cn3)CC2)c2ccnc(-c3ccn[nH]3)c2n1 [Compound 47]
The IC50 of the first is lower: under 1000 nM for the first, 1000 to 5000 nM for the second. The first is the more potent here.

Source: patent publication US20240317741A1, “NAPHTHYRIDINE DERIVATIVE AS ATR INHIBITOR AND METHOD FOR PREPARING SAME” (WIGEN BIOMEDICINE TECHNOLOGY (SHANGHAI) CO., LTD., priority 2021, published 2024)
